Results as given in patent US20030152557A1, “Methods for inhibiting histone deacetylase-4” (priority 2001, published 2003).
Values belong to the molecule of their own block, whether it stands above or below them. d = 2'-deoxy (DNA); m = 2'-O-methyl

Experiments:
Human A549 cells = test: cDNA array analysis of gene transcription; assay type: cell-based; conditions: 50 nM, two days, vs HDAC-4 mismatch oligo (MM2)
Description: (§1) Briefly, human A549 and/or T24 human bladder carcinoma cells were seeded in 10 cm tissue culture dishes one day prior to oligonucleotide treatment. The cell lines were obtained from the American Type Culture Collection (ATCC) (Manassas, Va.) and were grown under the recommended culture conditions. Before the addition of the oligonucleotides, cells were washed with PBS (phosphate buffered saline). Next, lipofectin transfection reagent (GIBCO BRL Mississauga, Ontario, CA), at a concentration of 6.25 μg/ml, was added to serum free OPTIMEM medium (GIBCO BRL, Rockville, Md.), which was then added to the cells. The oligonucleotides to be screened were then added directly to the cells (i.e., one oligonucleotide per plate of cells). Mismatched oligonucleotides were used as controls. The same concentration of oligonucleotide (e.g., 50 nM) was used per plate of cells for each oligonucleotide tested.

human HDAC-4 mRNA = test: Northern blot analysis of HDAC-4 RNA expression; assay type: cell-based; conditions: A549 cells, escalating doses, 24 hours
Description: Human cancer A549 cells were treated with escalating doses of AS1, AS2 or MM2 oligos for 24 hours. Total RNAs were harvested for Northern analysis.
Seventeen phosphorothioate ODNs containing sequences complementary to the 5′ or 3′ UTR of the human HDAC-4 gene (GenBank Accession No. AB006626) were screened as above. […] HDAC-4 MM oligo was created as a control; compared to the antisense oligo, it contains a 6-base mismatch.
as §1
Cells were harvested, and total RNAs were analyzed by Northern blot analysis. […]

human HDAC-4 protein = test: Western blot of HDAC-4 protein expression; assay type: cell-based; conditions: A549 cells, 48 hours
Description: Human cancer A549 cells were treated with AS1, AS2 or MM2 oligos for 48 hours. Whole cell lysates were analyzed by Western blotting using antibodies specific against human HDAC-4.
(§2) OSDN treatment conditions were as previously described.
(§3) Cells were lysed in buffer containing 1% Triton X-100, 0.5% sodium deoxycholate, 5 mM EDTA, 25 mM Tris-HCl, pH 7.5, plus protease inhibitors. Total protein was quantified by the protein assay reagent from Bio-Rad (Hercules, Calif.). 100 ug of total protein was analyzed by SDS-PAGE. Next, total protein was transferred onto a PVDF membrane and probed with various HDAC-specific primary antibodies. Rabbit anti-HDAC-1 (H-51), anti-HDAC-2 (H-54) antibodies (Santa Cruz Biotechnologies, Santa Cruz, Calif.) were used at 1:500 dilution. Rabbit anti-HDAC-3 antibody (Sigma, St. Louis, Mo.) was used at a dilution of 1:1000. Anti-HDAC-4 antibody was prepared as previously described (Wang, S. H. et al., (1999) Mol. Cell. Biol. 19:7816-27), and was used at a dilution of 1:1000. Anti-HDAC-6 antibody was raised by immunizing rabbits with a GST fusion protein containing a fragment of HDAC-6 protein (amino acid #990 to #1216, GenBank Accession No. AAD29048). Rabbit antiserum was tested and found only to react specifically to the human HDAC-6 isoform. HDAC-6 antiserum was used at 1:500 dilution in Western blots to detect HDAC-6 in total cell lysates. […]

A549 = test: apoptosis, Cell Death Detection ELISA, A549; assay type: cell-based, human; conditions: 48 hour treatment
Description: as §1
(§4) In order to determine the effect of HDAC OSDNs on cell growth and cell death through apoptosis, A549 or T24 cells, MDAmb231 cells, and HMEC cells (ATCC, Manassas, Va.) were treated with HDAC OSDNs as previously described.
(§5) For the apoptosis study, cells were analyzed using the Cell Death Detection ELISA^Plus kit (Roche Diagnostic GmBH, Mannheim, Germany) according to the manufacturer's directions. Typically, 10,000 cells were plated in 96-well tissue culture dishes for 2 hours before harvest and lysis. Each sample was analyzed in duplicate. ELISA reading was done using a MR700 plate reader (DYNEX Technology, Ashford, Middlesex, England) at 410 nm. The reference was set at 490 nm.

T24 = test: apoptosis, Cell Death Detection ELISA, T24; assay type: cell-based, human; conditions: 48 hour treatment
Description: as §1, §4, §5

MDAmb231 = test: apoptosis, Cell Death Detection ELISA, MDAmb231; assay type: cell-based, human; conditions: 48 hour treatment
Description: as §1, §4, §5

HMEC = test: apoptosis, Cell Death Detection ELISA, HMEC; assay type: cell-based, human; conditions: 48 hour treatment
Description: as §1, §4, §5

human HDAC-6 RNA = test: Northern blot analysis of HDAC-6 RNA expression; assay type: cell-based; conditions: T24 cells, 100 nM, 24 hours
Description: Thirteen phosphorothloate ODNs containing sequences complementary to the 5′ or 3′ untranslated regions of the human HDAC-6 gene (GenBank Accession No. AJ011972) were screened as above. […] HDAC-6 MM oligo was created as a control; compared to the antisense oligo, it contains a 7-base mismatch.
as §1
(§6) Cells were harvested, and total RNAs were analyzed by Northern blot analysis. Briefly, total RNA was extracted using RNeasy miniprep columns (QIAGEN). […]

human HDAC-6 protein = test: Western blot of HDAC-6 protein expression; assay type: cell-based; conditions: A549 cells, 50 nM, 48 hours
Description: as §2
as §3, with “lysates. Horse Radish Peroxidase conjugated secondary antibody was used at a dilution of 1:5000 to detect primary antibody binding.” for “lysates.”

human cancer cells = test: cell growth analysis and apoptosis, cancer cells; assay type: cell-based; conditions: various human cancer cells, 50 nM
Description: as §4, §5
Cells were harvested and cell numbers counted by trypan blue exclusion using a hemocytometer. Percentage of inhibition was calculated as (100-AS cell numbers/control cell numbers)%.

human HDAC-3 mRNA = test: Northern blot analysis of HDAC-3 RNA expression; assay type: cell-based; conditions: T24 cells, 100 nM, 24 hours
Description: Twenty-one phosphorothioate ODNs containing sequences complementary to the 5′ or 3′ UTR of the human HDAC-3 gene (GenBank Accession No. AF039703) were screened as above. […] HDAC-3 MM oligo was created as a control; compared to the antisense oligo, it contains a a 6-base mismatch.
as §1, §6

human HDAC-3 protein = test: Western blot of HDAC-3 protein expression; assay type: cell-based; conditions: A549 cells, 50 nM, 48 hours
Description: as §2
as §3, with “lysates. Horse Radish Peroxidase conjugated secondary antibody was used at a dilution of 1:5000 to detect primary antibody binding.” for “lysates.”

human HDAC-2 RNA = test: Northern blot analysis of HDAC-2 RNA expression; assay type: cell-based; conditions: T24 cells, 100 nM, 24 hours
Description: Twenty-four phosphorothioate ODNs containing sequences complementary to the 5′ or 3′ UTR of the human HDAC-2 gene (GenBank Accession No. U31814) were screened as above. […] HDAC-2 MM was created as a control; compared to the antisense oligo, it contains a 7-base mismatch.
as §1, §6

human HDAC-2 protein = test: Western blot of HDAC-2 protein expression; assay type: cell-based; conditions: A549 cells, 50 nM, 48 hours
Description: as §2
as §3, with “lysates. Horse Radish Peroxidase conjugated secondary antibody was used at a dilution of 1:5000 to detect primary antibody binding.” for “lysates.”

[1] = test system: T24 human bladder cancer cells; test: inhibition of HDAC activity in whole cells (acetylated histone H-4 Western); assay type: cell-based; conditions: acetylated histone H-4 in T24 cells, 16 hours
Description: T24 human bladder cancer cells (ATCC, Manassas, Va.) growing in culture were incubated with test compounds for 16 hours. Histones were extracted from the cells by standard procedures (see e.g. Yoshida et al., supra) after the culture period. Twenty μg total core histone protein was loaded onto SDS/PAGE and transferred to nitrocellulose membranes, which were then reacted with polyclonal antibody specific for acetylated histone H-4 (Upstate Biotech Inc., Lake Placid, […].). Horse Radish Peroxidase conjugated secondary antibody was used at a dilution of 1:5000 to detect primary antibody binding. The secondary antibody binding was visualized by use of the Enhanced chemiluminescence (ECL) detection kit (Amersham-Pharmacia Biotech., Inc., Piscataway, N.J.). After exposure to film, acetylated H-4 signal was quantitated by densitometry.

mammalian HDAC = conditions: Yoshida et al. 1990; cited from earlier work
[2] = test system: murine erythroleukemia cells; conditions: Yoshida et al. 1987; cited from earlier work
A549 cells = test: RNase protection assay of p21, GADD45 and Bax mRNA, A549; conditions: A549, TSA 250 ng/ml 16 hours vs lipofectin
Description: As a control, A549 cells were treated by lipofectin with or without TSA (250 ng/ml) treatment for 16 hours. […] Total RNA from cells was prepared using “RNeasy miniprep kit” from QIAGEN following the manufacturer's manual. Labeled probes used in the protection assays were synthesized using “hStress-1 multiple-probe template sets” from Pharmingen (San Diego, Calif., U.S.A.) according to the manufacturer's instructions. Protection procedures were performed using “RPA II™ Ribonuclease Protection Assay Kit” from Ambion, (Austin, Tex.) following the manufacturer's instructions. Quantitation of the bands from autoradiograms was done by using Cyclone™ Phosphor System (Packard Instruments Co. Inc., Meriden, Conn.).

Molecule: 5-GCTGCCTGCCGTGCCCACCC-3′ (sugars from the 5' end m4 d12 m4, all phosphorothioate, methylation of C and T or U not given here) [HDAC-4 AS1, antisense oligo, human HDAC4 5′-UTR]
fold change CDK4 (Human A549 cells): −3 fold
fold change Egr-1 (Human A549 cells): 3 fold
fold change GADD45 (Human A549 cells): 3 fold
fold change GADD153 (Human A549 cells): 6 fold
fold change IL-15 (Human A549 cells): 4 fold
fold change IRF (Human A549 cells): 2 fold
fold change Notch-4 (Human A549 cells): −3 fold
fold change PLK (Human A549 cells): −4 fold
fold change basic FGF (Human A549 cells): 2 fold
fold change cyclin A2 (Human A549 cells): −3 fold
fold change cyclin B1 (Human A549 cells): −3 fold
fold change p21 (Human A549 cells): 4 fold
fold change topo II α (Human A549 cells): −5 fold
HDAC-4 expression at RNA level (human HDAC-4 mRNA): inbibit HDAC-4 expression at RNA level in a dose-dependent manner
expression of HDAC-4 protein (human HDAC-4 protein): inbibit HDAC-4 expression at protein level

Molecule: 5′-CAGGCTGGAATGAGCTACAG-3′ (sugars from the 5' end m4 d12 m4, all phosphorothioate, methylation of C not given here) [HDAC-6, antisense oligo, human HDAC6 3′-UTR]
Apoptosis A549 (A549; HDAC isotype-specific OSDN): − (“−”: < = 2x fold over non-specific background)
Apoptosis T24 (T24; HDAC isotype-specific OSDN): − (“−”: < = 2x fold over non-specific background)
Apoptosis MDAmb231 (MDAmb231; HDAC isotype-specific OSDN): − (“−”: < = 2x fold over non-specific background)
Apoptosis HMEC (HMEC; HDAC isotype-specific OSDN): − (“−”: < = 2x fold over non-specific background)
HDAC-6 RNA expression (antisense activity) (human HDAC-6 RNA): antisense activity to human HDAC-6
expression of HDAC-6 protein (human HDAC-6 protein): specifically inhibits the expression of the respective HDAC isotype protein
effect on cancer cell growth and apoptosis (human cancer cells): no effect on cancer cell growth or apoptosis

Molecule: 5′-CGCTTTCCTTGTCATTGACA-3′ (sugars from the 5' end m4 d12 m4, all phosphorothioate, methylation of C and T or U not given here) [HDAC-3, antisense oligo, human HDAC3 3′-UTR]
Apoptosis A549 (A549; HDAC isotype-specific OSDN): − (“−”: < = 2x fold over non-specific background)
Apoptosis T24 (T24; HDAC isotype-specific OSDN): − (“−”: < = 2x fold over non-specific background)
Apoptosis MDAmb231 (MDAmb231; HDAC isotype-specific OSDN): − (“−”: < = 2x fold over non-specific background)
Apoptosis HMEC (HMEC; HDAC isotype-specific OSDN): − (“−”: < = 2x fold over non-specific background)
HDAC-3 RNA expression (antisense activity) (human HDAC-3 mRNA): antisense activity to human HDAC-3
expression of HDAC-3 protein (human HDAC-3 protein): specifically inhibits the expression of the respective HDAC isotype protein
effect on cancer cell growth and apoptosis (human cancer cells): no effect on cancer cell growth or apoptosis

Molecule: 5′-GCTGAGCTGTTCTGATTTGG-3′ (chemistry not given here) [HDAC-2, antisense oligo, human HDAC2 3′-UTR]
Apoptosis A549 (A549; HDAC isotype-specific OSDN): − (“−”: < = 2x fold over non-specific background)
Apoptosis T24 (T24; HDAC isotype-specific OSDN): − (“−”: < = 2x fold over non-specific background)
Apoptosis MDAmb231 (MDAmb231; HDAC isotype-specific OSDN): − (“−”: < = 2x fold over non-specific background)
Apoptosis HMEC (HMEC; HDAC isotype-specific OSDN): − (“−”: < = 2x fold over non-specific background)
HDAC-2 RNA expression (antisense activity) (human HDAC-2 RNA): antisense activity to human HDAC-2
expression of HDAC-2 protein (human HDAC-2 protein): specifically inhibits the expression of the respective HDAC isotype protein
effect on cancer cell growth and apoptosis (human cancer cells): minimal effect on cancer cell growth inhibition

Molecule: 5′-TACAGTCCATGCAACCTCCA-3′ (sugars from the 5' end m4 d12 m4, all phosphorothioate, methylation of C and T or U not given here) [HDAC4 AS2, antisense oligo, human HDAC4 3′-UTR]
HDAC-4 expression at RNA level (human HDAC-4 mRNA): inbibit HDAC-4 expression at RNA level in a dose-dependent manner
expression of HDAC-4 protein (human HDAC-4 protein): inbibit HDAC-4 expression at protein level

Molecule: CC(/C=C/C(=O)Nc1ccccc1N)=C\C(C)C(=O)c1ccc(N(C)C)cc1 (stereo not drawn) [MG 24 29]
4-Ac [1]: 1 µM

Molecule: Nc1ccccc1NC(=O)CCCCCCC(=O)c1ccc(-c2ccccc2)cc1 [MG 36 50]
4-Ac [1]: 10 µM

Molecule: Cc1ccc(S(=O)(=O)Nc2ccc(/C=C/C(=O)Nc3ccccc3N)cc2)cc1 [MG 37 63]
4-Ac [1]: 5 µM

Molecule: Nc1ccccc1NC(=O)CCCCCCC(=O)c1ccc(-c2ccccc2)nc1 [MG 38 69]
4-Ac [1]: 5 µM

fold induction of transcription Bax (A549 cells): 0.8 fold
fold induction of transcription GADD45 (A549 cells): 0.6 fold
fold induction of transcription p21 (A549 cells): 2.8 fold
Molecule: CC(/C=C/C(=O)NO)=C\[C@@H](C)C(=O)c1ccc(N(C)C)cc1 [TSA, (R)-Trichostatin A, reference compound]
Apoptosis A549 (A549; 100 ng/ml): ++ (“++”: 3-5X fold)
Apoptosis T24 (T24; 100 ng/ml): ++ (“++”: 3-5X fold)
Apoptosis MDAmb231 (MDAmb231; 100 ng/ml): ++ (“++”: 3-5X fold)
Apoptosis HMEC (HMEC; 100 ng/ml): + (“+”: 2-3X fold)
inhibition of mammalian HDAC (mammalian HDAC): potent inhibitor of mammalian HDAC
induction of differentiation [2]: potent inducer of differentiation in murine erythroleukemia cells
